The source of these data is patent publication US8877786B2, “Substituted carbamoylmethylamino acetic acid derivatives as novel NEP inhibitors” (Novartis AG, priority 2009, dated 2014).

Usually IC50 stands for the concentration that inhibits the measured activity by half.

Sequence of recombinant human neutral endopeptidase (NEP, EC 3.4.24.11) (P08473 whole entry): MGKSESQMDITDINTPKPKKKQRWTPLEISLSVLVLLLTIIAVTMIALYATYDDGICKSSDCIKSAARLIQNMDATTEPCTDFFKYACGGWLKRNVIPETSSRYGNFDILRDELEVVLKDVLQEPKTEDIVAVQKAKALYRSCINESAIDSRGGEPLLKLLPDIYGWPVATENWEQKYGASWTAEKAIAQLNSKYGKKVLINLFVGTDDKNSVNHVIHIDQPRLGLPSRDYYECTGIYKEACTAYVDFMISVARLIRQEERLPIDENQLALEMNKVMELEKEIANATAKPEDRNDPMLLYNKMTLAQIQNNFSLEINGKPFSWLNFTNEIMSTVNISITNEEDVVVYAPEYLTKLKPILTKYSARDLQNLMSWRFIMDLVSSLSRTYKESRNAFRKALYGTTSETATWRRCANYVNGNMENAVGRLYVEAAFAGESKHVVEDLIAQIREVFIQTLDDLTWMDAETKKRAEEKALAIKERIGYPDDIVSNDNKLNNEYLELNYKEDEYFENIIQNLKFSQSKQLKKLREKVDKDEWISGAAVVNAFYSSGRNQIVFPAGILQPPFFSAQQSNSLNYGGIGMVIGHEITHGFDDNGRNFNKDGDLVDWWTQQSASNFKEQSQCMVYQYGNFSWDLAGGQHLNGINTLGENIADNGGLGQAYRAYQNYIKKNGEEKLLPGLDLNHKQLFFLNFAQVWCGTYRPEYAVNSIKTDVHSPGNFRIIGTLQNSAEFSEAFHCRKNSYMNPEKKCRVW

The test concerns the target recombinant human neutral endopeptidase (NEP, EC 3.4.24.11) (Homo sapiens (Human), UniProt P08473). Nature of the test: in vitro inhibition of recombinant human neutral endopeptidase (fluorescence lifetime assay). The format is biochemical. To be noted: recombinant human NEP 7 pM, 1 hour pre-incubation at room temperature, pH 7.4, substrate Cys(PT14)-Arg-Arg-Leu-Trp-OH 0.7 μM, FLT read after 1 hour. From the text: The activity of a compound according to the present invention can be assessed by the following in vitro & in vivo methods and/or by the following in vitro & in vivo methods well-described in the art. See A fluorescence lifetime-based assay for protease inhibitor profiling on human kallikrein 7 Doering K, Meder G, Hinnenberger M, Woelcke J, Mayr L M, Hassiepen U Biomol Screen.
`C[C@H](N[C@@H](Cc1ccc(-c2cccc(Cl)c2)cc1)C(=O)Nc1nnn[nH]1)C(=O)O` [Example 3-1, (S)-2-[(S)-2-(3′-chloro-biphenyl-4-yl)-1-(1H-tetrazol-5-ylcarbamoyl)-ethylamino]-propionic acid]: the IC50 was found to be 0.09 nM. The result for `C[C@H](N[C@@H](Cc1ccc(-c2cc(Cl)ccc2Cl)cc1)C(=O)Nc1nnn[nH]1)C(=O)O` [Example 3-2, (S)-2-[(S)-2-(2′,5′-dichloro-biphenyl-4-yl)-1-(1H-tetrazol-5-ylcarbamoyl)-ethylamino]-propionic acid] reads 0.3 nM; that for `C[C@H](N[C@@H](Cc1ccc(-c2ccccc2)cc1)C(=O)Nc1nnn[nH]1)C(=O)O` [Example 3-4, (S)-2-[(S)-2-Biphenyl-4-yl-1-(1H-tetrazol-5-ylcarbamoyl)-ethylamino]-propionic acid], 11 nM; that for `C[C@H](N[C@@H](Cc1ccc(-c2cccc(Cl)c2)cc1)C(=O)Nc1cc(O)no1)C(=O)O` [Example 3-7, (S)-2-[(S)-2-(3′-Chloro-biphenyl-4-yl)-1-(3-hydroxy-isoxazol-5-ylcarbamoyl)-ethylamino]-propionic acid], 2.4 nM. As for `O=C(O)[C@H](CCc1ccccc1)N[C@@H](Cc1ccc(-c2cccc(Cl)c2)cc1)C(=O)Nc1nnn[nH]1` [Example 3-12, (S)-2-[(S)-2-(3′-Chloro-biphenyl-4-yl)-1-(1H-tetrazol-5-ylcarbamoyl)-ethylamino]-4-phenyl-butyric acid], the figure is 0.2 nM.
